Data from patent US6461997B1, “Triazole sulfones having herbicidal activity” (Monsanto Technology LLC, priority 1999, dated 2002).

What was measured:
SORVU (shattercane) [1] = assay: Pre-emergence herbicidal activity, warm season; assay type: in vivo, Sorghum vulgare; settings: GR80 = lowest tested rate (300, 100, 30, 10 g/ha) with 80% or greater inhibition; approx. 14 days after treating; 30/21° C.
How it was run: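 Activity is expressed as the rate giving 80% inhibition, with 300, 100, 30 and 10 g/ha typically tested. An asterisk marks activity short of 80% at the top rate. Warm-season grasses were held at 30/21 °C; cool-season blackgrass and wild buckwheat at 18/13 °C; scoring at about 14 days.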

[2] = system: VERPE (creeping speedwell); assay: Pre-emergence herbicidal activity, cool season; assay type: in vivo, Veronica persicaria; settings: lowest tested rate with 80% or greater inhibition; rates 300, 100, 30, 10 g/ha; about 14 days
How it was run: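 Seeds sown in sterilised fertilised topsoil received surface-applied compound in 50:50 acetone/water, typically at 300, 100, 30 and 10 g/ha, then greenhouse-grown at 30/21° C (warm-season species) or 18/13° C (cool-season species). Percent inhibition versus untreated plants was scored at about 14 days, giving GR80; an asterisk marks activity short of 80% at the top rate.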

SOLNI (black nightshade) = assay: Pre-plant incorporated (PPI) herbicidal activity, warm season; assay type: in vivo, Solanum nigrum; settings: for PPI activity (GR80) SOLNI: pre-plant incorporated, GR80 = lowest tested rate with 80% or greater inhibition, approx. 14 days after treating, 30/21° C.
Method: (§1) In another set of tests, the pre-plant incorporated (PPI) activity of compounds of this invention was evaluated on the same species as for the pre-emergence tests described above. In the PPI tests the following procedure, designed to simulate PPI application, was used.
(§2) A pre-prepared topsoil mixture (described above) was placed in a pot and compacted to a depth of 1.0 to 1.25 cm from the top of the pot. Seeds of each of several monocotyledonous and dicotyledonous annual plant species were placed on top of the soil. A sufficient quantity of soil to cover the seeds and level fill the pot was weighed into an open container. A known amount of the test compound was dissolved or suspended in an organic solvent and applied by spraying to this cover soil. The cover soil was thoroughly mixed to distribute the test compound throughout the cover soil, and was then applied as a cover layer over the seeds. Untreated soil was used as a cover layer for control pots. After treatment the plants were placed in a greenhouse where they received 0.64 cm of overhead irrigation. All subsequent watering consisted of a light overhead mist and/or subirrigation as needed for germination and growth. Tables 9 and 10 below relate to warm season plant species which were placed after pre-emergence treatment in a greenhouse with a 30/21° C. day/night temperature regime. Tables 11 and 12 below relates to cool season plant species placed after pre-emergence treatment in a greenhouse or growth chamber with an 18/13° C. day/night temperature regime. Only the compounds of Examples 1, 6, 8, 11, 13 and 15-20 were included in PPI tests.
(§3) Approximately 14 days after planting and treating, the plants were observed and herbicidal efficacy recorded as percent inhibition by comparison with untreated plants.

[3] = system: CHEAL (common lambsquarters); assay: as above; assay type: in vivo, Chenopodium album; settings: for PPI activity (GR80) CHEAL: pre-plant incorporated, GR80 = lowest tested rate with 80% or greater inhibition, approx. 14 days after treating, 30/21° C.
Method: as §1, §2, §3

[4] = system: PANMI (wild proso millet); assay: as above; assay type: in vivo, Panicum miliaceum; settings: for PPI activity GR80, PANMI: pre-plant incorporated, lowest tested rate with 80% or greater inhibition, about 14 days
Method: as §1, §2, §3

SORVU (shattercane) [5] = assay: as above; assay type: in vivo, Sorghum vulgare; settings: for PPI activity GR80, SORVU: pre-plant incorporated, lowest tested rate with 80% or greater inhibition, about 14 days
Method: as §1, §2, §3

corn (ZEAMX) = assay: Selectivity test, PPI, warm season crop; assay type: in vivo, Zea mays; settings: PPI application
Method: as §2, §3
Additional pre-emergence and PPI tests were conducted by the procedures described above, on warm and cool season weed species in the presence of crop species, to assess herbicidal selectivity. Crop species included in warm season tests were corn (Zea mays, ZEAMX), rice (Oryza sativa, ORYSA) and soybean (Glycine max, GLYMX). Crop species included in cool season tests were wheat (Triticum aestivum, TRZAW), barley (Hordeunm vulgare, HORVX) and oilseed rape (Brassica napus, BRSNS).
Tables 15 and 16 relate to pre-emergence and PPI tests respectively on warm season species. Table 17 relates to pre-emergence tests on cool season species.

[6] = Solanum nigrum, PPI application, 30 g/ha, read-out: Percent inhibition SOLNI
[7] = Solanum nigrum, PPI application, 100 g/ha, read-out: Percent inhibition SOLNI
[8] = Solanum nigrum, PPI application, 300 g/ha, read-out: Percent inhibition SOLNI
[9] = Solanum nigrum, PPI application, 900 g/ha, read-out: Percent inhibition SOLNI
[10] = Panicum miliaceum, PPI application, 30 g/ha, read-out: Percent inhibition PANMI
[11] = Panicum miliaceum, PPI application, 100 g/ha, read-out: Percent inhibition PANMI
[12] = Panicum miliaceum, PPI application, 300 g/ha, read-out: Percent inhibition PANMI
[13] = Panicum miliaceum, PPI application, read-out: Percent inhibition PANMI
[14] = Sorghum bicolor, PPI application, 30 g/ha, read-out: Percent inhibition SORVU
[15] = Sorghum bicolor, PPI application, 100 g/ha, read-out: Percent inhibition SORVU
[16] = Sorghum bicolor, PPI application, 300 g/ha, read-out: Percent inhibition SORVU
[17] = Sorghum bicolor, PPI application, 900 g/ha, read-out: Percent inhibition SORVU
[18] = Zea mays, 30 g/ha, read-out: Percent inhibition ZEAMX
[19] = Zea mays, 100 g/ha, read-out: Percent inhibition ZEAMX
[20] = Zea mays, 300 g/ha, read-out: Percent inhibition ZEAMX
[21] = Zea mays, 900 g/ha, read-out: Percent inhibition ZEAMX

C=C(Br)CC(F)(F)S(=O)(=O)c1ncn(C(=O)N(CC)CC)n1 [Example 19]
Pre-emergence activity (GR80) SORVU (SORVU (shattercane) [1]): 300 g/ha
Pre-emergence activity GR80, VERPE [2]: 300 g/ha
inhibition at 10 g/ha (SOLNI (black nightshade); Solanum nigrum, PPI application, 10 g/ha, read-out: Percent inhibition SOLNI): 0%
inhibition at 30 g/ha (SOLNI (black nightshade); [6]): 0%
inhibition at 100 g/ha (SOLNI (black nightshade); [7]): 0%
inhibition at 300 g/ha (SOLNI (black nightshade); [8]): 40%
inhibition at 900 g/ha (SOLNI (black nightshade); [9]): 90%
PPI activity (GR80) SOLNI (SOLNI (black nightshade)): 100 g/ha
PPI activity (GR80) CHEAL [3]: 100 g/ha
inhibition at 10 g/ha ([4]; Panicum miliaceum, PPI application, 10 g/ha, read-out: Percent inhibition PANMI): 0%
inhibition at 30 g/ha [4, 10]: 60%
inhibition at 100 g/ha [4, 11]: 100%
inhibition at 300 g/ha [4, 12]: 100%
inhibition at 900 g/ha [4, 13]: 100%
PPI activity GR80, PANMI [4]: 100 g/ha
inhibition at 10 g/ha (SORVU (shattercane) [5]; Sorghum bicolor, PPI application, 10 g/ha, read-out: Percent inhibition SORVU): 30%
inhibition at 30 g/ha (SORVU (shattercane) [5]; [14]): 50%
inhibition at 100 g/ha (SORVU (shattercane) [5]; [15]): 65%
inhibition at 300 g/ha (SORVU (shattercane) [5]; [16]): 100%
inhibition at 900 g/ha (SORVU (shattercane) [5]; [17]): 100%
PPI activity GR80, SORVU (SORVU (shattercane) [5]): 300 g/ha
inhibition at 10 g/ha (corn (ZEAMX); Zea mays, 10 g/ha, read-out: Percent inhibition ZEAMX): 0%
inhibition at 30 g/ha (corn (ZEAMX); [18]): 0%
inhibition at 100 g/ha (corn (ZEAMX); [19]): 10%
inhibition at 300 g/ha (corn (ZEAMX); [20]): 10%
inhibition at 900 g/ha (corn (ZEAMX); [21]): 35%

CCN(CC)C(=O)n1cnc(S(=O)(=O)C(F)(F)F)n1 [Example 2]
Pre-emergence activity (GR80) SORVU (SORVU (shattercane) [1]): 300 g/ha
Pre-emergence activity GR80, VERPE [2]: 10 g/ha
Percent inhibition SOLNI (SOLNI (black nightshade); PPI application, 30 g/ha): 30%
Percent inhibition SOLNI (SOLNI (black nightshade); PPI application, 100 g/ha): 90%
Percent inhibition SOLNI (SOLNI (black nightshade); PPI application, 300 g/ha): 100%
Percent inhibition SOLNI (SOLNI (black nightshade); PPI application, 900 g/ha): 90%
Percent inhibition CHEAL ([3]; PPI application, 30 g/ha): 90%
Percent inhibition CHEAL ([3]; PPI application, 100 g/ha): 95%
Percent inhibition CHEAL ([3]; PPI application, 300 g/ha): 100%
Percent inhibition CHEAL ([3]; PPI application, 900 g/ha): 100%
Percent inhibition PANMI ([4]; PPI application, 30 g/ha): 20%
Percent inhibition PANMI ([4]; PPI application, 100 g/ha): 80%
Percent inhibition PANMI ([4]; PPI application, 300 g/ha): 100%
Percent inhibition SORVU (SORVU (shattercane) [5]; PPI application, 30 g/ha): 50%
Percent inhibition SORVU (SORVU (shattercane) [5]; PPI application, 100 g/ha): 100%
Percent inhibition SORVU (SORVU (shattercane) [5]; PPI application, 300 g/ha): 95%
Percent inhibition SORVU (SORVU (shattercane) [5]; PPI application, 900 g/ha): 100%
Percent inhibition ZEAMX (corn (ZEAMX); 30 g/ha): 5%
Percent inhibition ZEAMX (corn (ZEAMX); 100 g/ha): 10%
Percent inhibition ZEAMX (corn (ZEAMX); 300 g/ha): 50%
Percent inhibition ZEAMX (corn (ZEAMX); 900 g/ha): 80%

CCSC(F)(F)S(=O)(=O)c1ncn(C(=O)N(CC)CC)n1 [Example 8, 1-(N,N-diethylcarbamoyl)-3-[difluoro(ethylthio)methylsulfonyl]-1,2,4-triazole]
Pre-emergence activity (GR80) SORVU (SORVU (shattercane) [1]): 100 g/ha
Pre-emergence activity GR80, VERPE [2]: 30 g/ha
inhibition at 30 g/ha (SOLNI (black nightshade); [6]): 50%
inhibition at 100 g/ha (SOLNI (black nightshade); [7]): 100%
inhibition at 300 g/ha (SOLNI (black nightshade); [8]): 100%
inhibition at 900 g/ha (SOLNI (black nightshade); [9]): 100%
PPI activity (GR80) SOLNI (SOLNI (black nightshade)): 100 g/ha
inhibition at 30 g/ha ([3]; Chenopodium album, PPI application, 30 g/ha, read-out: Percent inhibition CHEAL): 70%
inhibition at 100 g/ha ([3]; Chenopodium album, PPI application, 100 g/ha, read-out: Percent inhibition CHEAL): 100%
inhibition at 300 g/ha ([3]; Chenopodium album, PPI application, 300 g/ha, read-out: Percent inhibition CHEAL): 100%
inhibition at 900 g/ha ([3]; Chenopodium album, PPI application, 900 g/ha, read-out: Percent inhibition CHEAL): 100%
PPI activity (GR80) CHEAL [3]: 30 g/ha
inhibition at 30 g/ha [4, 10]: 100%
inhibition at 100 g/ha [4, 11]: 100%
inhibition at 300 g/ha [4, 12]: 100%
inhibition at 900 g/ha [4, 13]: 100%
PPI activity GR80, PANMI [4]: 10 g/ha
inhibition at 30 g/ha (SORVU (shattercane) [5]; [14]): 50%
inhibition at 100 g/ha (SORVU (shattercane) [5]; [15]): 70%
inhibition at 300 g/ha (SORVU (shattercane) [5]; [16]): 100%
inhibition at 900 g/ha (SORVU (shattercane) [5]; [17]): 100%
PPI activity GR80, SORVU (SORVU (shattercane) [5]): 300 g/ha
inhibition at 30 g/ha (corn (ZEAMX); [18]): 0%
inhibition at 100 g/ha (corn (ZEAMX); [19]): 5%
inhibition at 300 g/ha (corn (ZEAMX); [20]): 65%
inhibition at 900 g/ha (corn (ZEAMX); [21]): 95%
